Test results published in paper PMC6897958, “Structural basis of ligand selectivity and disease mutations in cysteinyl leukotriene receptors” (Nature Communications, 2019).

Assays:
Format in all cases: cell-based
CysLT2R wild type = biological target: T1, CysLT2R wild type (Homo sapiens, UniProt Q9NS75); experiment: IP1 production assay (Cisbio IP-One), HEK293 cells transfected with wild-type CysLT2R
T1 construct: host or cells: HEK293 (ATCC CRL-1573)
Procedure: (§1) For CysLT2R functional assays, the initial CysLT2R wild-type gene with an N-terminal 3 × HA tag cloned into pcDNA3.1+ (Invitrogen) at EcoRI(5′) and XhoI(3′) was purchased from cDNA.org. All further gene modifications (point mutations, truncations, or partner protein fusion) were introduced by overlapping PCR. Sequences of all primers used in this work are listed in Supplementary Table 4.
The Cisbio IP-One kit was used according to the manufacturer’s instructions. […] At 48 h post transfection, the media was removed and the cells were washed with fresh Hank’s Balanced Salt Solution. […] After equilibration for 30 min at 37 °C, the cells were lysed with IP1-D2 and Ab-Crypt reagents in lysis buffer and then incubated for 1 h at RT. […] Data were plotted using the three parameters EC50/IC50 fit in GraphPad Prism 7 (San Diego, CA) and represent the mean ± s.d. of at least two independent experiments performed in quadruplicate.

CysLT2R K194 ^ECL2N = biological target: T2, CysLT2R K194 ^ECL2N (Homo sapiens, UniProt Q9NS75, K194N); experiment: IP1 production assay, HEK293 transfected with CysLT2R mutant
T2 construct: expressed in transfected cells; host or cells: HEK293 (ATCC CRL-1573)
T2 sequence (Q9NS75 whole entry K194N): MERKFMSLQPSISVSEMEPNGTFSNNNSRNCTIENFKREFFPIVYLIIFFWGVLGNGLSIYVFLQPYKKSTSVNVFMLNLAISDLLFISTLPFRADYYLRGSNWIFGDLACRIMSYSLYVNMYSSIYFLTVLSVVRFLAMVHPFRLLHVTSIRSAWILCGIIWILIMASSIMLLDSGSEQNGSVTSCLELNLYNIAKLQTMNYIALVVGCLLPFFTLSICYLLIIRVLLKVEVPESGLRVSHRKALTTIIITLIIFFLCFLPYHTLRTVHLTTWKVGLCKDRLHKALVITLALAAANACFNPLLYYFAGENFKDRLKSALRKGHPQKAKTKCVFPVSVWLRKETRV
Source text: as §1
(§2) The Cisbio IP-One kit was used according to the manufacturer’s instructions. HEK293 cells (ATCC CRL-1573) were seeded onto poly-L-Lysine-coated 384-well plates at 20,000 cells per well and transfected with 40 ng of DNA coding for the wild-type CysLT2R or for the CysLT2R mutants using the X-treme-Gene HP (Roche) agent. At 48 h post transfection, the media was removed and the cells were washed with fresh Hank’s Balanced Salt Solution. […] After equilibration for 30 min at 37 °C, the cells were lysed with IP1-D2 and Ab-Crypt reagents in lysis buffer and then incubated for 1 h at RT. […] Data were plotted using the three parameters EC50/IC50 fit in GraphPad Prism 7 (San Diego, CA) and represent the mean ± s.d. of at least two independent experiments performed in quadruplicate.

CysLT2R W51^1.45V = biological target: T3, CysLT2R W51^1.45V (Homo sapiens, UniProt Q9NS75, W51V); experiment: as above
T3 construct: expressed in transfected cells; host or cells: HEK293 (ATCC CRL-1573)
T3 sequence (Q9NS75 whole entry W51V): as the sequence (Q9NS75 whole entry K194N) above, with W51V, N194K counted along it
Source text: as §1, §2

CysLT2R E310^8.48G = biological target: T4, CysLT2R E310^8.48G (Homo sapiens, UniProt Q9NS75, E310G); experiment: as above
T4 construct: expressed in transfected cells; host or cells: HEK293 (ATCC CRL-1573)
T4 sequence (Q9NS75 whole entry E310G): as the sequence (Q9NS75 whole entry K194N) above, with N194K, E310G counted along it
Source text: as §1, §2

CysLT2R H284^7.32Q = biological target: T5, CysLT2R H284^7.32Q (Homo sapiens, UniProt Q9NS75, H284Q); experiment: as above
T5 construct: expressed in transfected cells; host or cells: HEK293 (ATCC CRL-1573)
T5 sequence (Q9NS75 whole entry H284Q): as the sequence (Q9NS75 whole entry K194N) above, with N194K, H284Q counted along it
Source text: as §1, §2

CysLT2R N301^7.49D = biological target: T6, CysLT2R N301^7.49D (Homo sapiens, UniProt Q9NS75, N301D); experiment: as above
T6 construct: expressed in transfected cells; host or cells: HEK293 (ATCC CRL-1573)
T6 sequence (Q9NS75 whole entry N301D): as the sequence (Q9NS75 whole entry K194N) above, with N194K, N301D counted along it
Source text: as §1, §2

CysLT2R V135^3.49D = biological target: T7, CysLT2R V135^3.49D (Homo sapiens, UniProt Q9NS75, V135D); experiment: as above
T7 construct: expressed in transfected cells; host or cells: HEK293 (ATCC CRL-1573)
T7 sequence (Q9NS75 whole entry V135D): as the sequence (Q9NS75 whole entry K194N) above, with V135D, N194K counted along it
Source text: as §1, §2

CysLT2R K37^1.31R = biological target: T8, CysLT2R K37^1.31R (Homo sapiens, UniProt Q9NS75, K37R); experiment: as above
T8 construct: expressed in transfected cells; host or cells: HEK293 (ATCC CRL-1573)
T8 sequence (Q9NS75 whole entry K37R): as the sequence (Q9NS75 whole entry K194N) above, with K37R, N194K counted along it
Source text: as §1, §2

CysLT2R K194 ^ECL2R = biological target: T9, CysLT2R K194 ^ECL2R (Homo sapiens, UniProt Q9NS75, K194R); experiment: as above
T9 construct: expressed in transfected cells; host or cells: HEK293 (ATCC CRL-1573)
T9 sequence (Q9NS75 whole entry K194R): as the sequence (Q9NS75 whole entry K194N) above, with N194R counted along it
Source text: as §1, §2

CysLT2R I126^3.40V = biological target: T10, CysLT2R I126^3.40V (Homo sapiens, UniProt Q9NS75, I126V); experiment: as above
T10 construct: expressed in transfected cells; host or cells: HEK293 (ATCC CRL-1573)
T10 sequence (Q9NS75 whole entry I126V): as the sequence (Q9NS75 whole entry K194N) above, with I126V, N194K counted along it
Source text: as §1, §2

CysLT2R Y119^3.33F = biological target: T11, CysLT2R Y119^3.33F (Homo sapiens, UniProt Q9NS75, Y119F); experiment: as above
T11 construct: expressed in transfected cells; host or cells: HEK293 (ATCC CRL-1573)
T11 sequence (Q9NS75 whole entry Y119F): as the sequence (Q9NS75 whole entry K194N) above, with Y119F, N194K counted along it
Source text: as §1, §2

CysLT2R L129^3.43Q = biological target: T12, CysLT2R L129^3.43Q (Homo sapiens, UniProt Q9NS75, L129Q); experiment: as above; details: for remaining activity at 1 µM: HEK293, Log[Antagonist] -6 M, L129Q constitutive activity, source data Supp Figure 6D; for remaining activity at 0.01 µM: HEK293, Log[Antagonist] -8 M; for remaining activity at 0.001 µM: HEK293, Log[Antagonist] -9 M; for reversal of constitutive activity (IP1 production) of L129^3.43Q: antagonist 1 µM
T12 construct: expressed in transfected cells; host or cells: HEK293 (ATCC CRL-1573)
T12 sequence (Q9NS75 1-346 L129Q): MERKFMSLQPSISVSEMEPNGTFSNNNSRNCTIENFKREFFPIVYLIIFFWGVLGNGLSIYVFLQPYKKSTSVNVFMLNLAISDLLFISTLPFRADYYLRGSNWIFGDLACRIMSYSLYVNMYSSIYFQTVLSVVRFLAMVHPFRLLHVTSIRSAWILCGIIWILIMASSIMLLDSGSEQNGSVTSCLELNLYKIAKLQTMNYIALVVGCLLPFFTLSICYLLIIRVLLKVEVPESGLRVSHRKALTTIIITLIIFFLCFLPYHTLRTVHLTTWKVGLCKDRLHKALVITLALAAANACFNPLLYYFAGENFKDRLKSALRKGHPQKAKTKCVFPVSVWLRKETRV
Source text: as §1, §2

CysLT2R S169^4.56A = biological target: T13, CysLT2R S169^4.56A (Homo sapiens, UniProt Q9NS75, S169A); experiment: as above
T13 construct: expressed in transfected cells; host or cells: HEK293 (ATCC CRL-1573)
T13 sequence (Q9NS75 whole entry S169A): as the sequence (Q9NS75 whole entry K194N) above, with S169A, N194K counted along it
Source text: as §1, §2

CysLT2R M201^5.38V = biological target: T14, CysLT2R M201^5.38V (Homo sapiens, UniProt Q9NS75, M201V); experiment: as above
T14 construct: expressed in transfected cells; host or cells: HEK293 (ATCC CRL-1573)
T14 sequence (Q9NS75 whole entry M201V): as the sequence (Q9NS75 whole entry K194N) above, with N194K, M201V counted along it
Source text: as §1, §2

CysLT2R N202^5.39H = biological target: T15, CysLT2R N202^5.39H (Homo sapiens, UniProt Q9NS75, N202H); experiment: as above
T15 construct: expressed in transfected cells; host or cells: HEK293 (ATCC CRL-1573)
T15 sequence (Q9NS75 whole entry N202H): as the sequence (Q9NS75 whole entry K194N) above, with N194K, N202H counted along it
Source text: as §1, §2

CysLT2R Y127^3.41W = biological target: T16, CysLT2R Y127^3.41W (Homo sapiens, UniProt Q9NS75, Y127W); experiment: as above
T16 construct: expressed in transfected cells; host or cells: HEK293 (ATCC CRL-1573)
T16 sequence (Q9NS75 whole entry Y127W): as the sequence (Q9NS75 whole entry K194N) above, with Y127W, N194K counted along it
Source text: as §1, §2

CysLT2R R267^6.55K = biological target: T17, CysLT2R R267^6.55K (Homo sapiens, UniProt Q9NS75, R267K); experiment: as above
T17 construct: expressed in transfected cells; host or cells: HEK293 (ATCC CRL-1573)
T17 sequence (Q9NS75 whole entry R267K): as the sequence (Q9NS75 whole entry K194N) above, with N194K, R267K counted along it
Source text: as §1, §2

CysLT2R E310^8.48A = biological target: T18, CysLT2R E310^8.48A (Homo sapiens, UniProt Q9NS75, E310A); experiment: as above
T18 construct: expressed in transfected cells; host or cells: HEK293 (ATCC CRL-1573)
T18 sequence (Q9NS75 whole entry E310A): as the sequence (Q9NS75 whole entry K194N) above, with N194K, E310A counted along it
Source text: as §1, §2

CysLT2R F260^6.48W = biological target: T19, CysLT2R F260^6.48W (Homo sapiens, UniProt Q9NS75, F260W); experiment: as above
T19 construct: expressed in transfected cells; host or cells: HEK293 (ATCC CRL-1573)
T19 sequence (Q9NS75 whole entry F260W): as the sequence (Q9NS75 whole entry K194N) above, with N194K, F260W counted along it
Source text: as §1, §2

CysLT2R F137^3.51Y = biological target: T20, CysLT2R F137^3.51Y (Homo sapiens, UniProt Q9NS75, F137Y); experiment: as above
T20 construct: expressed in transfected cells; host or cells: HEK293 (ATCC CRL-1573)
T20 sequence (Q9NS75 whole entry F137Y): as the sequence (Q9NS75 whole entry K194N) above, with F137Y, N194K counted along it
Source text: as §1, §2

[1] = read-out: IP1 production (normalized), single replicate values
[2] = L129Q, Supp Figure 6D, read-out: IP1 production (normalized), single replicate values

T1 sequence (Q9NS75 whole entry): as the sequence (Q9NS75 whole entry K194N) above, with N194K counted along it

SMILES | IC50 (CysLT2R wild type) [nM] | IC50 (CysLT2R K194 ^ECL2N) [nM] | IC50 (CysLT2R W51^1.45V) [nM] | IC50 (CysLT2R E310^8.48G) [nM] | IC50 (CysLT2R H284^7.32Q) [nM] | IC50 (CysLT2R N301^7.49D) [nM] | IC50 (CysLT2R V135^3.49D) [nM] | IC50 (CysLT2R K37^1.31R) [nM] | IC50 (CysLT2R K194 ^ECL2R) [nM] | IC50 (CysLT2R I126^3.40V) [nM] | IC50 (CysLT2R Y119^3.33F) [nM] | remaining activity at 1 µM (CysLT2R L129^3.43Q; [1]) [%] | remaining activity at 0.01 µM (CysLT2R L129^3.43Q; [2]) [%] | remaining activity at 0.001 µM (CysLT2R L129^3.43Q; [2]) [%] | reversal of constitutive activity (IP1 production) of L129^3.43Q (CysLT2R L129^3.43Q) | IC50 (CysLT2R S169^4.56A) [nM] | IC50 (CysLT2R M201^5.38V) [nM] | IC50 (CysLT2R N202^5.39H) [nM] | IC50 (CysLT2R Y127^3.41W) [nM] | IC50 (CysLT2R R267^6.55K) [nM] | also measured
O=C(O)CCCN1C[C@@H](C(=O)O)Oc2c(NC(=O)c3ccc(OCCCCc4cc(F)ccc4Cl)cc3)cccc21 [cpd 11a] | 14 ± 6 | 8 ± 4 | 47 ± 10 | 2 ± 1 | 230 ± 90 | 170 ± 70 | 3 ± 3 | 80 ± 30 | 60 ± 30 | 20 ± 10 | 100 ± 40 | 76.2 | 78.3 | 74.4 | not reversed | 10 ± 4 | 30 ± 10 | 290 ± 100 | 500 ± 400 | 22 ± 9 | IC50 (CysLT2R E310^8.48A): 8 ± 3 nM; IC50 (CysLT2R F260^6.48W): 40 ± 20 nM; IC50 (CysLT2R F137^3.51Y): 15 ± 5 nM
O=C(O)CCCN1CC(C(=O)O)Oc2c(NC(=O)c3ccc(OCCCCOc4cccc(F)c4F)cc3F)cccc21 (centres unmarked) [cpd 11c] | 70 ± 20 | 32 ± 10 | 160 ± 30 | 7 ± 6 | 270 ± 200 | 110 ± 50 | 40 ± 30 | 280 ± 100 | 40 ± 20 | 14 ± 5 | 260 ± 100 | 80.7 | 83.3 | 87.9 | not reversed | 16 ± 10 | 60 ± 20 | 60 ± 30 | 44 ± 10 | 100 ± 30 | remaining activity at 0.1 µM (CysLT2R L129^3.43Q; HEK293, Log[Antagonist] -7 M, L129Q, Supp Figure 6D, read-out: IP1 production (normalized), single replicate values): 85.9%; remaining activity at 0.0001 µM (CysLT2R L129^3.43Q; HEK293, Log[Antagonist] -10 M, L129Q, Supp Figure 6D, read-out: IP1 production (normalized), single replicate values): 72.7%; remaining activity at 10 pM (CysLT2R L129^3.43Q; HEK293, Log[Antagonist] -11 M, L129Q, Supp Figure 6D, read-out: IP1 production (normalized), single replicate values): 64.1%; remaining activity at 1 pM (CysLT2R L129^3.43Q; HEK293, Log[Antagonist] -12 M, L129Q, Supp Figure 6D, read-out: IP1 production (normalized), single replicate values): 68%; IC50 (CysLT2R E310^8.48A): 18 ± 5 nM; IC50 (CysLT2R F260^6.48W): 330 ± 100 nM; IC50 (CysLT2R F137^3.51Y): 70 ± 20 nM
